Measured values from US5436229A, “Bisulfite adducts of arginine aldehydes” (Eli Lilly and Company, priority 1994, dated 1995).

What was measured:
Format in all cases: biochemical
human plasma [1] = assay: Human plasma anticoagulation, prothrombin time (PT)
Method: (§1) Fibrinogen is prepared from in-date ACD human blood as the fraction I-2 according to previous procedures and specifications. Smith, Biochem. […] Coagulation reagents ACTIN, Thromboplastin, and Human plasma are from Baxter Healthcare Corp., Dade Division, Miami, Fla. Bovine thrombin from Parke-Davis (Detroit, Mich.) is used for coagulation assays in plasma. Coagulation assay procedures are as previously described. […] A CoAScreener coagulation instrument (American LABor, Inc.) is used for all coagulation assay measurements. […] The compounds of formula I are added to human or animal plasma over a wide range of concentrations to determine prolongation effects on the APTT, PT, and TT assays. Linear extrapolations are performed to estimate the concentrations required to double the clotting time for each assay.

Bovine trypsin = target: T1, Bovine trypsin (Bos taurus, UniProt P00760); assay: Serine protease inhibition (Kass), trypsin
T1 construct: Bovine trypsin is purchased from Worthington Biochemicals; purchased Worthington Biochemicals, Freehold, N.J
T1 sequence (P00760 24-246): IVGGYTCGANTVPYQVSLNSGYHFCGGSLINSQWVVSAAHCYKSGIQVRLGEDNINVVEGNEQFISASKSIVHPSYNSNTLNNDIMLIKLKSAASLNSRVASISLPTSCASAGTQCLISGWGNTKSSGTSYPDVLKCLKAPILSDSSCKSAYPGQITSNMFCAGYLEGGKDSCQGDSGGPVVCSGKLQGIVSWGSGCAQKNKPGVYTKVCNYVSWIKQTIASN
Method: (§2) By substantially following the procedures described above for human thrombin, and using other human blood coagulation system serine proteases and using fibrinolytic system serine proteases, with the appropriate chromogenic substrates, identified below, the selectivity of the compounds of the present invention with respect to the coagulation factor serine proteases and to the fibronolytic serine proteases are evaluated as well as their substantial lack of interference with human plasma clot fibrinolysis.
(§3) Human factors X, Xa, IXa, XIa, and XIIa are purchased from Enzyme Research Laboratories, South Bend, Ind.; human urokinase from Leo Pharmaceuticals, Denmark; and recombinant activated Protein C (aPC) is prepared at Eli Lilly and Co. substantially according to U.S. Pat. No. 4,981,952 incorporated by reference herein in its entirety. Chromogenic substrates: N-Benzoyl-Ile-Glu-Gly-Arg-p-nitroanilide (for factor Xa); N-Cbz-D-Arg-Gly-Arg-p-nitroanilide (for factor IXa assay as the factor Xa substrate); Pyroglutamyl-Pro-Arg-p-nitroanilide (for Factor XIa and for aPC); H-D-Pro-Phe-Arg-p-nitroanilide (for factor XIIa); and Pyroglutamyl-Gly-Arg-p-nitroanilide (for urokinase); are purchased from KabiVitrum, Stockholm, Sweden, or from Midwest Biotech, Fishers, Ind. Bovine trypsin is purchased from Worthington Biochemicals, Freehold, N.J., and human plasma kallikrein from Kabi Vitrum, Stockholm, Sweden. Chromogenic substrate H-D-Pro-Phe-Arg-p-nitroanilide for plasma kallikrein is purchased from Kabi Vitrum, Stockholm, Sweden. N-Benzoyl-Phe-Val-Arg-p-nitroanilide, the substrate for human thrombin and for trypsin, is synthesized according to procedures described above for the compounds of the present invention, using known methods of peptide coupling from commercially available reactants, or purchaed from Midwest Biotech, Fishers, Ind.

human plasma [2] = assay: Human plasma anticoagulation, thrombin time (TT)
Method: as §1

Human plasmin = target: T2, Human plasmin (Homo sapiens, UniProt P00747); assay: Serine protease inhibition (Kass), plasmin
T2 construct: Human plasmin is purchased from Boehringer Mannheim; purchased Boehringer Mannheim, Indianapolis, Ind
Method: as §2
(§4) Human plasmin is purchased from Boehringer Mannheim, Indianapolis, Ind.; nt-PA is purchased as single chain activity reference from American Diagnostica, Greenwich, Conn.; modified-t-PA6 (mt-PA6) is prepared at Eli Lilly and Company by procedure known in the art (See, Burck, et al., J. Biol. Chem., 265, […] (1990). Plasmin chromogenic substrate H-D-Val-Leu-Lys-p-nitroanilide and tissue plasminogen activator (t-PA) substrate H-D-Ile-Pro-Arg-p-nitroanilide are purchased from Kabi Vitrum, Stockholm, Sweden.

human plasma [3] = assay: Human plasma anticoagulation, activated partial thromboplastin time (APTT)
Method: as §1

human thrombin = human thrombin (Homo sapiens, UniProt P00734); assay: Thrombin amidase inhibition (Kass), chromogenic substrate
Method: The assay is carried out by mixing 50 μl buffer (0.03M Tris, 0.15M NaCl, pH 7.4) with 25 μl of human thrombin solution (purified human thrombin, Enzyme Research Laboratories, South Bend, Ind., at 8 NIH units/ml) and 25 μl of test compound in a solvent (50% aqueous methanol (v:v)). Then 150 μl of an aqueous solution of the chromogenic substate (at 0.25 mg/ml) are added and the rates of hydrolysis of the substrate are measured by monitoring the reactions at 405 nm for the release of p-nitroaniline. Standard curves are constructed by plotting free thrombin concentration against hydrolysis rate. […] The amount of free inhibitor in each assay is calculated by subtracting the number of moles of bound thrombin from the number of moles of added inhibitor (test compound).
The Kass value is the hypothetical equilibrium constant for the reaction between thrombin and the test compound (I) . [formula]
Kass is calculated for a range of concentrations of test compounds and the mean value reported in units of liter per mole.

factor Xa = target: T3, factor Xa (Homo sapiens, UniProt P00742); assay: Serine protease inhibition (Kass), factor Xa
T3 construct: Human factors X, Xa, IXa, XIa, and XIIa are purchased from Enzyme Research Laboratories; purchased Enzyme Research Laboratories, South Bend, Ind
Method: as §2, §3

[4] = target: T4, tissue plasminogen activator (t-PA) (Homo sapiens, UniProt P00750); assay: Serine protease inhibition (Kass), t-PA
T4 construct: purchased American Diagnostica, Greenwich, Conn
Method: as §2, §4

T4 sequence (P00750 36-562): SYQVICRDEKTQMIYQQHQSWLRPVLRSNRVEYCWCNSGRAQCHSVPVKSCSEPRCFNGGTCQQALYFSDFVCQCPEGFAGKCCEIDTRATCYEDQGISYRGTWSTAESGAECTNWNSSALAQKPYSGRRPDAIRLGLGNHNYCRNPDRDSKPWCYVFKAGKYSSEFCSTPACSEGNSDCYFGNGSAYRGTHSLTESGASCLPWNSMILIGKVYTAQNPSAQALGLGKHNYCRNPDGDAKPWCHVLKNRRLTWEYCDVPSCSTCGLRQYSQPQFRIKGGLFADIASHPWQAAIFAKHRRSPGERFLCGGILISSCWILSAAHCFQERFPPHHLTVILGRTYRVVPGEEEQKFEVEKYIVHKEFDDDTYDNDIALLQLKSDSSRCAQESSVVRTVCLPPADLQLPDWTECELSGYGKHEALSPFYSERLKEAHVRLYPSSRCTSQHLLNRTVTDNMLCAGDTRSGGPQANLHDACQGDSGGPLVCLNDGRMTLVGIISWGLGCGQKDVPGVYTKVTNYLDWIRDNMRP
T2 sequence (P00747 581-810 limits assumed): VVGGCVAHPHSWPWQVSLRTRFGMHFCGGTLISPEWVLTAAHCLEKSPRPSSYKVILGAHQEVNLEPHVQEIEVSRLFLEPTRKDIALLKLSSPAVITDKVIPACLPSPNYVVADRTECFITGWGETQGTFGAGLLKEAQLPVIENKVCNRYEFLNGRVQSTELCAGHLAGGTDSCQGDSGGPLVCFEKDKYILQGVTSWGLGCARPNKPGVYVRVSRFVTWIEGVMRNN
T2 sequence (P00747 97-580 partner limits assumed): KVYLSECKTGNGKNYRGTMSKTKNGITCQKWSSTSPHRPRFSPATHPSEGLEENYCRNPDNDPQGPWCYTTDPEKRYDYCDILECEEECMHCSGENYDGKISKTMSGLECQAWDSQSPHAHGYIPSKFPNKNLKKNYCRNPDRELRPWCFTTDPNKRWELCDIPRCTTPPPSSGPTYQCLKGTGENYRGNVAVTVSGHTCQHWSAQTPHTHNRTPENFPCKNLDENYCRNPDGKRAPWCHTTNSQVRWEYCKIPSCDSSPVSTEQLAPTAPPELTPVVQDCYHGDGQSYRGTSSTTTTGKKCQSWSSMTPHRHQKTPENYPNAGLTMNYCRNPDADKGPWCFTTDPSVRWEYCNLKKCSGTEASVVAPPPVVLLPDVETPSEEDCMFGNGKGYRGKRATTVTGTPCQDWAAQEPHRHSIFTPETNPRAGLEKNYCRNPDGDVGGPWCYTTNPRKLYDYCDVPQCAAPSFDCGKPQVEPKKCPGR
T3 sequence (P00742 235-488 limits assumed): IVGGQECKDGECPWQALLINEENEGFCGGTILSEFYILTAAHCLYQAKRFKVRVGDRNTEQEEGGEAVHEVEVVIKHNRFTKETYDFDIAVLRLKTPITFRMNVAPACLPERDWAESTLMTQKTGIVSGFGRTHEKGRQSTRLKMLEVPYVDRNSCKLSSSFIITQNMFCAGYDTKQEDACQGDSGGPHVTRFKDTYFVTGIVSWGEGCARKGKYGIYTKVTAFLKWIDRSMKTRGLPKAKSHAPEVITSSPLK
T3 sequence (P00742 41-179 partner limits assumed): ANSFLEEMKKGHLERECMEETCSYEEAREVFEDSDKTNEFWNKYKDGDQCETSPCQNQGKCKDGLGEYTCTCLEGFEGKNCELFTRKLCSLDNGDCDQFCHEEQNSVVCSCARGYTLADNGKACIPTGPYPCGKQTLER

Row | SMILES | 2 × Clotting time PT (human plasma [1]) | Kass Trypsin (Bovine trypsin) [L/mol × 10^6] | 2 × Clotting time TT (human plasma [2]) [ng/mL] | Kass Plasmin (Human plasmin) [L/mol × 10^6] | 2 × Clotting time APTT (human plasma [3]) | Kass Human Thrombin (human thrombin) [L/mol × 10^6] | Kass Xa (factor Xa) [L/mol × 10^6] | Kass t-PA [4] [L/mol × 10^6]
1 | CCS(=O)(=O)NC(C)(C(=O)N1CCC[C@H]1C(=O)N[C@H](C=O)CCCNC(=N)N)c1ccccc1.Cl (stereo partly drawn) [Example 41, N-ethylsulfonyl-(D,L)-phenylglycinyl(αmethyl)-L-prolinyl-L-arginine aldehyde hydrochloride] | 2,100 ng/mL | 42 | 52 | 1.2 | 1,200 ng/mL | 430 | 0.49 | 0.023
2 | C[C@@]1(C(=O)N[C@H](C=O)CCCNC(=N)N)CCCN1C(=O)[C@@H](Cc1ccccc1)NS(C)(=O)=O.Cl [Example 43, N-methylsulfonyl-D-phenylalanyl(αmethyl)-L-prolinyl-L-arginine aldehyde hydrochloride] | 1,600 ng/mL | 28 | 41 | 0.56 | 1,500 ng/mL | 31 | 0.23 | 0.027
3 | C[C@@]1(C(=O)N[C@H](C=O)CCCNC(=N)N)CCCN1C(=O)[C@H](Cc1ccccc1)NS(C)(=O)=O.Cl [Example 44, N-methylsulfonylphenylalanyl(αmethyl)-L-prolinyl-L-arginine aldehyde hydrochloride] | 11,000 ng/mL | 1.4 | 560 | 0.031 | 12,000 ng/mL | 2.1 | 0.033 | 0.0023
4 | Cl.N=C(N)NCCC[C@@H](C=O)NC(=O)[C@@H]1CCCN1C(=O)[C@@H](Cc1ccccc1)NC(=O)Cc1cccnc1 [Example 48, N-(3-pyridylacetyl)-D-phenylalanyl-L-Prolinyl-L-Arginine Aldehyde Hydrochloride] | 3,400 ng/mL | 5.2 | 150 | 0.27 | 2,300 ng/mL | 13 | 0.067 | 0.22
5 | Cl.Cn1c(C(=O)N[C@H](CC2CCCCC2)C(=O)N2CCC[C@H]2C(=O)N[C@H](C=O)CCCNC(=N)N)cc2ccccc21 [Example 49, N-(1-methylindolyl-2-carbonyl)-D-cyclohexylalanyl-L-Prolinyl-L-Arginine Aldehyde Hydrochlonde] | 2,500 ng/mL | 7.9 | 110 | 25 | 1,000 ng/mL | 320 | 4.6 | 1.1
6 | Cl.N=C(N)NCCC[C@@H](C=O)NC(=O)[C@@H]1CCCN1C(=O)[C@@H](CC1CCCCC1)NC(=O)c1cc2ccccc2cn1 [Example 50, N-(isoquinolinyl-2-carbonyl)-D-cyclohexylalanyl-L-Prolinyl-L-Arginine Aldehyde Hydrochloride] | 2,700 ng/mL | 2.5 | 97 | 2.5 | 1,400 ng/mL | 200 | 0.83 | 0.088
7 | COc1ccc(OC)c(S(=O)(=O)N[C@H](Cc2ccccc2)C(=O)N2CCC[C@H]2C(=O)N[C@H](C=O)CCCNC(=N)N)c1.Cl [Example 59, N-(2,5-dimethoxyphenylsulfonyl)-D-phenylalanyl-L-Prolinyl-L-Arginine Aldehyde Hydrochloride] | 2,000 ng/mL | 150 | 92 | 9.5 | 550 ng/mL | 200 | 8.8 | 1.5
8 | Cc1noc(C)c1S(=O)(=O)N[C@H](Cc1ccccc1)C(=O)N1CCC[C@H]1C(=O)N[C@H](C=O)CCCNC(=N)N.Cl [Example 60, N-(3,5-dimethyl-4-isoxazolylsulfonyl)-D-phenylalanyl-L-Prolinyl-L-Arginine Aldehyde Hydrochloride] | 1,300 ng/mL | 200 | 33 | 18 | 430 ng/mL | 260 | 11 | 2.7
9 | Cl.N=C(N)NCCC[C@@H](C=O)NC(=O)[C@@H]1CCCN1C(=O)[C@@H](Cc1ccccc1)NS(=O)(=O)c1nccs1 [Example 63, N-(2-thiazolylsulfonyl)-D-phenylalanyl-L-Prolinyl-L-Arginine Aldehyde Hydrochloride] | 2,900 ng/mL | 52 | 66 | 3.4 | 810 ng/mL | 68 | 2.8 | 0.31
10 | CCS(=O)(=O)N[C@@H](C(=O)N1CCC[C@H]1C(=O)N[C@H](C=O)CCCNC(=N)N)c1ccccc1.Cl [Example 64, N-(ethylsulfonyl)-D-phenylglycinyl-L-Prolinyl-L-Arginine Aldehyde Hydrochloride] | 880 ng/mL | 160 | 34 | 14 | 250 ng/mL | 510 | 45 | 0.34
11 | CCS(=O)(=O)N[C@@H](C(=O)N1CCC[C@H]1C(=O)N[C@H](C=O)CCCNC(=N)N)C1CCCCC1.Cl [Example 66, N-(ethylsulfonyl)-D-cyclohexylglycinyl-L-Prolinyl-L-Arginine Aldehyde Hydrochloride] | 1,100 ng/mL | 260 | 46 | 13 | 330 ng/mL | 260 | 24 | 0.11
